The record followed here is PMC5218480 (PLoS ONE, 2017).

In the experiment the test system is MV-4-11 cells. Briefly: Gene expression microarray analysis (Affymetrix PrimeView) and GSEA. Particulars: MV-4-11 cells, 48 hours. Details: RFU PODN (11730768_x_at) / Fold change /veh PODN (11730768_x_at) / RFU LINC00158 (11744669_a_at) / Fold change /veh LINC00158 (11744669_a_at) / RFU DUSP10 (11751237_a_at) / Fold change /veh DUSP10 (11751237_a_at) / RFU ID3 (11757404_x_at) / Fold change /veh ID3 (11757404_x_at) / RFU PLEKHG5 (11737974_s_at) / Fold change /veh PLEKHG5 (11737974_s_at) / RFU LRRC4B (11730491_at) / Fold change /veh LRRC4B (11730491_at) / RFU GIMAP4 (11747438_a_at) / Fold change /veh GIMAP4 (11747438_a_at) / RFU KRT8 (11758183_x_at) / Fold change /veh KRT8 (11758183_x_at) / RFU CNN1 (11734310_a_at) / Fold change /veh CNN1 (11734310_a_at) / RFU VPS37D (11726825_at) / Fold change /veh VPS37D (11726825_at) / RFU C10orf10 (11716522_x_at) / Fold change /veh C10orf10 (11716522_x_at) / RFU KIR2DL2 /// KIR2DL4 /// KIR2DL5A /// KIR2DL5B /// KIR2DS1 /// KIR2DS2 /// KIR2DS3 /// KIR2DS4 /// KIR3DL3 /// KIR3DL3 /// KIR3DS1 (11738374_at) / Fold change /veh KIR2DL2 /// KIR2DL4 /// KIR2DL5A /// KIR2DL5B /// KIR2DS1 /// KIR2DS2 /// KIR2DS3 /// KIR2DS4 /// KIR3DL3 /// KIR3DL3 /// KIR3DS1 (11738374_at) / RFU C1QL1 (11718748_at) / Fold change /veh C1QL1 (11718748_at) / RFU TMPRSS4 (11747572_a_at) / Fold change /veh TMPRSS4 (11747572_a_at) / RFU HAMP (11756126_x_at) / Fold change /veh HAMP (11756126_x_at) / RFU RNFT2 (11725882_a_at) / Fold change /veh RNFT2 (11725882_a_at) / RFU NR4A2 (11747474_a_at) / Fold change /veh NR4A2 (11747474_a_at) / RFU ABCC12 (11746883_a_at) / Fold change /veh ABCC12 (11746883_a_at) / RFU TMEM136 (11760407_x_at) / Fold change /veh TMEM136 (11760407_x_at) / RFU CLDN22 /// WWC2 (11732394_at) / Fold change /veh CLDN22 /// WWC2 (11732394_at) / RFU HLA-DPB1 (11760878_x_at) / Fold change /veh HLA-DPB1 (11760878_x_at) / RFU SPINT1 (11716480_a_at) / Fold change /veh SPINT1 (11716480_a_at) / RFU GAP43 (11754022_s_at) / Fold change /veh GAP43 (11754022_s_at) / RFU A4GNT (11735810_at) / Fold change /veh A4GNT (11735810_at) / RFU PRB3 (11715151_x_at) / Fold change /veh PRB3 (11715151_x_at) / RFU TUBB4B (11761932_at) / Fold change /veh TUBB4B (11761932_at) / RFU CAPN14 (11732068_a_at) / Fold change /veh CAPN14 (11732068_a_at) / RFU TMCC2 (11721928_a_at) / Fold change /veh TMCC2 (11721928_a_at) / RFU IRGQ (11745062_a_at) / Fold change /veh IRGQ (11745062_a_at) / RFU FAM174B (11720279_a_at) / Fold change /veh FAM174B (11720279_a_at) / RFU TMPRSS4 (11748680_a_at) / Fold change /veh TMPRSS4 (11748680_a_at) / RFU FAM212B (11763350_a_at) / Fold change /veh FAM212B (11763350_a_at) / RFU PLEKHG5 (11743358_a_at) / Fold change /veh PLEKHG5 (11743358_a_at) / RFU ZSCAN30 (11745921_a_at) / Fold change /veh ZSCAN30 (11745921_a_at) / RFU CMKLR1 (11741424_a_at) / Fold change /veh CMKLR1 (11741424_a_at) / RFU LOC101060620 /// MAPK8IP1 (11723275_at) / Fold change /veh LOC101060620 /// MAPK8IP1 (11723275_at) / RFU SPTSSB (11747773_x_at) / Fold change /veh SPTSSB (11747773_x_at) / RFU PRSS12 (11739890_at) / Fold change /veh PRSS12 (11739890_at) / RFU BIN1 (11741810_x_at) / Fold change /veh BIN1 (11741810_x_at) / RFU WNT11 (11732464_a_at) / Fold change /veh WNT11 (11732464_a_at) / RFU C10orf10 (11716521_a_at) / Fold change /veh C10orf10 (11716521_a_at) / RFU C5orf56 (11738089_at) / Fold change /veh C5orf56 (11738089_at) / RFU CYB561 (11721691_x_at) / Fold change /veh CYB561 (11721691_x_at) / RFU ANKRD19P (11752326_a_at) / Fold change /veh ANKRD19P (11752326_a_at) / RFU OR2T12 /// OR2T33 /// OR2T8 (11738714_s_at) / Fold change /veh OR2T12 /// OR2T33 /// OR2T8 (11738714_s_at) / RFU VCAN (11748164_a_at) / Fold change /veh VCAN (11748164_a_at) / RFU JSRP1 (11732532_at) / Fold change /veh JSRP1 (11732532_at) / RFU KRTAP10-11 (11738290_x_at) / Fold change /veh KRTAP10-11 (11738290_x_at) / RFU MYO3A (11730013_a_at) / Fold change /veh MYO3A (11730013_a_at) / RFU EBF3 (11725865_a_at) / Fold change /veh EBF3 (11725865_a_at) / RFU CAMK2N1 (11719241_x_at) / Fold change /veh CAMK2N1 (11719241_x_at) / RFU C5orf56 (11738088_a_at) / Fold change /veh C5orf56 (11738088_a_at) / RFU OLFML3 (11715873_a_at) / Fold change /veh OLFML3 (11715873_a_at) / RFU LOC100653217 /// NTM (11731650_a_at) / Fold change /veh LOC100653217 /// NTM (11731650_a_at) / RFU MAPK11 (11762145_a_at) / Fold change /veh MAPK11 (11762145_a_at) / RFU FIZ1 (11724087_x_at) / Fold change /veh FIZ1 (11724087_x_at) / RFU OASL (11726364_x_at) / Fold change /veh OASL (11726364_x_at) / RFU SOX15 (11748057_x_at) / Fold change /veh SOX15 (11748057_x_at) / RFU CD79A (11719716_a_at) / Fold change /veh CD79A (11719716_a_at) / RFU HIST1H1D (11736915_at) / Fold change /veh HIST1H1D (11736915_at) / RFU CASKIN2 (11723855_a_at) / Fold change /veh CASKIN2 (11723855_a_at) / RFU LOC730098 (11760151_x_at) / Fold change /veh LOC730098 (11760151_x_at) / RFU OR4N2 (11742367_at) / Fold change /veh OR4N2 (11742367_at) / RFU PRRT2 (11749266_a_at) / Fold change /veh PRRT2 (11749266_a_at) / RFU SNX32 (11753110_a_at) / Fold change /veh SNX32 (11753110_a_at) / RFU CDHR5 (11726645_a_at) / Fold change /veh CDHR5 (11726645_a_at) / RFU RCAN1 (11760418_a_at) / Fold change /veh RCAN1 (11760418_a_at) / RFU FAM167A (11723789_a_at) / Fold change /veh FAM167A (11723789_a_at) / RFU FAM26E (11764081_at) / Fold change /veh FAM26E (11764081_at) / RFU ISYNA1 (11749810_s_at) / Fold change /veh ISYNA1 (11749810_s_at) / RFU ACY1 (11761880_at) / Fold change /veh ACY1 (11761880_at) / RFU 11764098_at / Fold change /veh 11764098_at / RFU SAMD14 (11745864_x_at) / Fold change /veh SAMD14 (11745864_x_at) / RFU NPB (11741838_a_at) / Fold change /veh NPB (11741838_a_at) / RFU TMPRSS6 (11731388_a_at) / Fold change /veh TMPRSS6 (11731388_a_at) / RFU KRTAP10-2 (11738614_at) / Fold change /veh KRTAP10-2 (11738614_at) / RFU ARHGAP8 /// PRR5-ARHGAP8 (11727945_x_at) / Fold change /veh ARHGAP8 /// PRR5-ARHGAP8 (11727945_x_at) / RFU KRTAP5-7 /// NADSYN1 (11734609_at) / Fold change /veh KRTAP5-7 /// NADSYN1 (11734609_at) / RFU RASL12 (11751679_a_at) / Fold change /veh RASL12 (11751679_a_at) / RFU CDKN2B (11736163_a_at) / Fold change /veh CDKN2B (11736163_a_at) / RFU PRF1 (11729649_at) / Fold change /veh PRF1 (11729649_at) / RFU, ZNF638 /// ZNF638-IT1 / Fold change vs veh, ZNF638 /// ZNF638-IT1 / RFU, PANK3 / Fold change vs veh, PANK3 / RFU, SH3YL1 / Fold change vs veh, SH3YL1 / RFU, ZEB2 / Fold change vs veh, ZEB2 / RFU, NRIP1 / Fold change vs veh, NRIP1 / RFU, PTTG1IP / Fold change vs veh, PTTG1IP / RFU, CAPN2 / Fold change vs veh, CAPN2 / RFU, MED14 / Fold change vs veh, MED14 / RFU, SNORA58 / Fold change vs veh, SNORA58 / RFU, C1orf63 / Fold change vs veh, C1orf63 / RFU, LRRFIP1 / Fold change vs veh, LRRFIP1 / RFU, NDUFAF7 / Fold change vs veh, NDUFAF7 / RFU, SLC12A2 / Fold change vs veh, SLC12A2 / RFU, IBTK / Fold change vs veh, IBTK / RFU, ESF1 / Fold change vs veh, ESF1 / Fold change vs veh, TMEM50B / RFU, TAOK1 / Fold change vs veh, TAOK1 / RFU, ACBD3 / Fold change vs veh, ACBD3 / RFU, TMA16 / Fold change vs veh, TMA16 / RFU, RWDD3 / Fold change vs veh, RWDD3 / RFU, BCAT1 / Fold change vs veh, BCAT1 / RFU, EDEM3 / Fold change vs veh, EDEM3 / RFU, TMEM33 / Fold change vs veh, TMEM33 / RFU, WDR75 / Fold change vs veh, WDR75 / RFU, AHCTF1 / Fold change vs veh, AHCTF1 / RFU, TFRC / Fold change vs veh, TFRC / RFU, ZDHHC17 / Fold change vs veh, ZDHHC17 / RFU, NOM1 / Fold change vs veh, NOM1 / RFU, ARL8B / Fold change vs veh, ARL8B / RFU, ZBTB11 / Fold change vs veh, ZBTB11 / RFU, TAMM41 / Fold change vs veh, TAMM41 / RFU, KIAA1704 /// LOC100996395 / Fold change vs veh, KIAA1704 /// LOC100996395 / RFU, ING1 / Fold change vs veh, ING1 / RFU, TRMT61B / Fold change vs veh, TRMT61B / RFU, FUBP3 / Fold change vs veh, FUBP3 / RFU, TP53 / Fold change vs veh, TP53 / RFU, TNKS2 / Fold change vs veh, TNKS2 / RFU, ZFP14 / Fold change vs veh, ZFP14 / RFU, ACTR2 / Fold change vs veh, ACTR2 / RFU, PPP3R1 / Fold change vs veh, PPP3R1 / RFU, PIK3R1 / Fold change vs veh, PIK3R1 / RFU, HNRNPA1 / Fold change vs veh, HNRNPA1 / RFU, RNF170 / Fold change vs veh, RNF170 / RFU, ZNF28 / Fold change vs veh, ZNF28 / RFU, RNGTT / Fold change vs veh, RNGTT / RFU, OGT / Fold change vs veh, OGT / RFU, BRD1 / Fold change vs veh, BRD1 / RFU, MARS / Fold change vs veh, MARS / RFU, ZNF655 / Fold change vs veh, ZNF655 / RFU, FAHD1 / Fold change vs veh, FAHD1 / RFU, BDP1 / Fold change vs veh, BDP1 / RFU, LRRCC1 / Fold change vs veh, LRRCC1 / RFU, ARID1A / Fold change vs veh, ARID1A / RFU, ZNF146 / Fold change vs veh, ZNF146 / RFU, ZNF330 / Fold change vs veh, ZNF330 / RFU, GPN3 / Fold change vs veh, GPN3 / RFU, C9orf123 / Fold change vs veh, C9orf123 / RFU, N4BP2L2 / Fold change vs veh, N4BP2L2 / RFU, ARFIP1 / Fold change vs veh, ARFIP1 / RFU, FAM179B / Fold change vs veh, FAM179B / RFU, BCL10 / Fold change vs veh, BCL10 / RFU, UHRF1BP1L / Fold change vs veh, UHRF1BP1L / RFU, BET1 / Fold change vs veh, BET1 / RFU, CNOT2 / Fold change vs veh, CNOT2 / RFU, ZNF268 / Fold change vs veh, ZNF268 / Fold change vs veh, ZNF507 / RFU, DGCR2 / Fold change vs veh, DGCR2 / RFU, WDSUB1 / Fold change vs veh, WDSUB1 / Fold change vs veh, HSP90B1 /// MIR3652 / RFU, ADSS / Fold change vs veh, ADSS / RFU, GK / Fold change vs veh, GK / RFU, ZNF148 / Fold change vs veh, ZNF148 / RFU, TAF9 / Fold change vs veh, TAF9 / RFU, SLC1A5 / Fold change vs veh, SLC1A5 / RFU, SLMO2 / Fold change vs veh, SLMO2 / RFU, ABCC4 / Fold change vs veh, ABCC4 / RFU, LOC101060439 /// RAP1B / Fold change vs veh, LOC101060439 /// RAP1B / RFU, RFX7 / Fold change vs veh, RFX7 / RFU, GTPBP10 / Fold change vs veh, GTPBP10 / RFU, CNEP1R1 / Fold change vs veh, CNEP1R1 / RFU, BIVM-ERCC5 /// ERCC5 / Fold change vs veh, BIVM-ERCC5 /// ERCC5 / RFU, ILF3 / Fold change vs veh, ILF3 / RFU 11762660_at / Fold change /veh 11762660_at / RFU VCAN (11757783_s_at) / Fold change /veh VCAN (11757783_s_at) / RFU DDX43 (11728927_at) / Fold change /veh DDX43 (11728927_at) / RFU KRT8 (11758188_x_at) / Fold change /veh KRT8 (11758188_x_at) / RFU NKD1 (11759106_at) / Fold change /veh NKD1 (11759106_at) / RFU SRD5A1 (11742802_a_at) / Fold change /veh SRD5A1 (11742802_a_at) / RFU TPSAB1 /// TPSB2 (11721975_s_at) / Fold change /veh TPSAB1 /// TPSB2 (11721975_s_at) / RFU GSTM3 (11746129_a_at) / Fold change /veh GSTM3 (11746129_a_at) / RFU IL23R (11737362_x_at) / Fold change /veh IL23R (11737362_x_at) / RFU TMEM51 (11727254_a_at) / Fold change /veh TMEM51 (11727254_a_at) / RFU PIWIL2 (11732686_x_at) / Fold change /veh PIWIL2 (11732686_x_at) / RFU ORM1 (11744905_x_at) / Fold change /veh ORM1 (11744905_x_at) / RFU CCDC152 (11743942_at) / Fold change /veh CCDC152 (11743942_at) / RFU ECM1 (11717891_a_at) / Fold change /veh ECM1 (11717891_a_at) / RFU IL23R (11748794_a_at) / Fold change /veh IL23R (11748794_a_at) / RFU TNFAIP8L3 (11732012_x_at) / Fold change /veh TNFAIP8L3 (11732012_x_at) / RFU MBOAT4 (11741988_at) / Fold change /veh MBOAT4 (11741988_at) / RFU 11764193_at / Fold change /veh 11764193_at / RFU TMEM53 (11763286_at) / Fold change /veh TMEM53 (11763286_at) / RFU MAGEB2 (11727129_at) / Fold change /veh MAGEB2 (11727129_at) / RFU TMEM200A (11744735_a_at) / Fold change /veh TMEM200A (11744735_a_at) / RFU CCDC152 (11751479_a_at) / Fold change /veh CCDC152 (11751479_a_at) / RFU FAM211A (11726209_a_at) / Fold change /veh FAM211A (11726209_a_at) / RFU RGS16 (11746705_a_at) / Fold change /veh RGS16 (11746705_a_at) / RFU VCAN (11755009_s_at) / Fold change /veh VCAN (11755009_s_at) / RFU RHOB (11743442_s_at) / Fold change /veh RHOB (11743442_s_at) / RFU RGS16 (11720943_a_at) / Fold change /veh RGS16 (11720943_a_at) / RFU RGS16 (11720944_at) / Fold change /veh RGS16 (11720944_at) / RFU, VPS4B / Fold change vs veh, VPS4B / RFU, CREB1 / Fold change vs veh, CREB1 / RFU, DNAJC13 / Fold change vs veh, DNAJC13 / RFU, GNAQ / Fold change vs veh, GNAQ / RFU, CDK5R1 / Fold change vs veh, CDK5R1 / RFU, ZRANB3 / Fold change vs veh, ZRANB3 / RFU, CUL4A / Fold change vs veh, CUL4A / RFU, CCNY / Fold change vs veh, CCNY / RFU, UFL1 / Fold change vs veh, UFL1 / RFU, COG3 / Fold change vs veh, COG3 / RFU, DIAPH2 / Fold change vs veh, DIAPH2 / RFU, SKA2 / Fold change vs veh, SKA2 / RFU, AFF3 / Fold change vs veh, AFF3 / RFU, LMF1 / Fold change vs veh, LMF1 / RFU, IPO11 / Fold change vs veh, IPO11 / RFU, DFFB / Fold change vs veh, DFFB / RFU, FOXP1 / Fold change vs veh, FOXP1 / RFU, CARD8 / Fold change vs veh, CARD8 / RFU, STRN3 / Fold change vs veh, STRN3 / RFU, ADK / Fold change vs veh, ADK / RFU, RASSF2 / Fold change vs veh, RASSF2 / RFU, WIPF1 / Fold change vs veh, WIPF1 / RFU, LARP1B / Fold change vs veh, LARP1B / RFU, RASA1 / Fold change vs veh, RASA1 / RFU, RB1 / Fold change vs veh, RB1 / RFU, PPFIA1 / Fold change vs veh, PPFIA1 / RFU, MAT2A / Fold change vs veh, MAT2A / RFU, CCT5 / Fold change vs veh, CCT5 / RFU, WDR92 / Fold change vs veh, WDR92 / RFU, CUX1 / Fold change vs veh, CUX1 / RFU, TTC7A / Fold change vs veh, TTC7A / RFU, TMEM135 / Fold change vs veh, TMEM135 / RFU, DEPTOR / Fold change vs veh, DEPTOR / RFU, CPM / Fold change vs veh, CPM / RFU, DNAJB6 / Fold change vs veh, DNAJB6 / RFU, CACNA2D3 / Fold change vs veh, CACNA2D3 / RFU, DTX4 / Fold change vs veh, DTX4 / RFU, TFCP2 / Fold change vs veh, TFCP2 / RFU, GMCL1 /// GMCL1P1 / Fold change vs veh, GMCL1 /// GMCL1P1 / RFU, AEBP2 / Fold change vs veh, AEBP2 / RFU, SNHG1 /// SNORD22 /// SNORD25 /// SNORD26 /// SNORD27 /// SNORD28 /// SNORD29 /// SNORD31 / Fold change vs veh, SNHG1 /// SNORD22 /// SNORD25 /// SNORD26 /// SNORD27 /// SNORD28 /// SNORD29 /// SNORD31 / Fold change (Aza/veh), C12orf56 (ProbeSet 11735607_a_at) / Fold change (ACY-1035/veh), C12orf56 (ProbeSet 11735607_a_at) / Fold change (Aza/veh), FGFR1OP (ProbeSet 11751329_s_at) / Fold change (ACY-1035/veh), FGFR1OP (ProbeSet 11751329_s_at) / Fold change (Aza/veh), VPS36 (ProbeSet 11739960_a_at) / Fold change (ACY-1035/veh), VPS36 (ProbeSet 11739960_a_at) / RFU SYPL1 (11715823_x_at) / Fold change /veh SYPL1 (11715823_x_at) / RFU IGFBP7 (11715501_s_at) / Fold change /veh IGFBP7 (11715501_s_at) / RFU REEP3 (11722064_at) / Fold change /veh REEP3 (11722064_at) / RFU IGLL1 (11728026_x_at) / Fold change /veh IGLL1 (11728026_x_at): dose or concentration left out as unconfirmed. Format: cell-based, human.

Consider `Nc1ncn([C@@H]2O[C@H](CO)[C@@H](O)[C@H]2O)c(=O)n1` [azacitidine], for which the “Fold change /veh MYO3A (11730013_a_at)” value was found to be 0.99.
